Entries after “also recorded” stand apart in the source; their conditions may differ.
Columns and labels:
[1] = biological target: T1, binding of rSdrG(50-597) to Fg (Staphylococcus epidermidis, UniProt Q9KI13); assay: ELISA: inhibition of rSdrG(50-597) binding to immobilized Fg by synthetic peptides; design: species or system S. epidermidis; details: for inhibition of rSdrG(50-597) binding to Fg: 50 nM rSdrG(50-597) pre-incubated with peptide 1 h
T1 construct: made in house; host or cells: E. coli Topp3
T1 sequence (Q9KI13 50-597): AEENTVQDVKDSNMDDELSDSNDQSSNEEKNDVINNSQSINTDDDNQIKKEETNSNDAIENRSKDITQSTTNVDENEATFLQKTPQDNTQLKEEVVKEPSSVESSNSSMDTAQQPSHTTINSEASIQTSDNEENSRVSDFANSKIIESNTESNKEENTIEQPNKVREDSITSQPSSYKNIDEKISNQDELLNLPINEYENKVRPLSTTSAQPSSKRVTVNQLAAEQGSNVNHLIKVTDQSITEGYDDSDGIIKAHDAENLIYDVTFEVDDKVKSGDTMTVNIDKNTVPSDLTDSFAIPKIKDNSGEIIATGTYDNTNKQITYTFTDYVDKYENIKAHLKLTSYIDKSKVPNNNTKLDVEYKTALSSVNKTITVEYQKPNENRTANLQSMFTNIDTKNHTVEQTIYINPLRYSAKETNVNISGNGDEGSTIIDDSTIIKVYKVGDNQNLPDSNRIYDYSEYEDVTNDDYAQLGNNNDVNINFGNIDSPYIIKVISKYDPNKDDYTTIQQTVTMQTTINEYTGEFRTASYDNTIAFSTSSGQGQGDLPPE
Protocol: ELISA—Microtiter plates (Immulon 4, Dynatech Laboratories Inc.) were coated with 1 μg of Fg (Enzyme Research Labs) in PBS, pH 7.5 for 18 h at 4° C. Plates were washed three times with PBS, 0.05% Tween 20 (PBST) and blocked with 1% (w/v) bovine serum albumin (BSA) for 1 h at room temperature. Plates were washed three times with PBST and rSdrG(50-597), diluted into PBS, was added to the wells and the plate was incubated for 1 h at room temperature. Plates were washed three times with PBST and bound rSdrG(50-597) was detected by adding a 1:2000 dilution of an anti-His-tag mAb (Clontech) in PBST, 0.1% BSA. Plates were incubated for 1 h at room temperature and then washed three times with PBST. A 1:2000 dilution of goat anti-mouse alkaline phosphatase (AP)-conjugated polyclonal antibodies (Bio-Rad) in PBST, 0.1% BSA were added to the wells and the plate was incubated for 1 h at room temperature. Plates were washed three times with PBST and developed with p-nitrophenyl phosphate (Sigma) in 1 M diethanolamine, 0.5 mM MgCl2, pH 9.0 at room temperature for ˜30 min. Plates were read at 405 nm using an ELISA plate reader (Thermomax microplate reader, Molecular Devices).
In the inhibition experiments, 50 nM rSdrG(50-597) in PBS was pre-incubated with the indicated amounts of selected peptides for 1 h at room temperature. The sample mixtures were added to the Fg-coated wells and bound rSdrG(50-597) was detected as described above.

[2] = in vivo; cited from earlier work
rSdrG(50-597) = rSdrG(50-597) (Staphylococcus epidermidis, UniProt Q9KI13); details: increasing amounts of unlabeled peptide
Protocol: Fluorescence Polarization—Fluorescence polarization was used to determine the equilibrium dissociation constant (KD) for the interaction of rSdrG(50-597) with peptide β1-25. The peptide was labeled with fluorescein as previously described (18). Increasing concentrations of rSdrG(50-597) in PBS, pH 7.5, were incubated with 10 nM labeled peptide for 3 h in the dark at room temperature. Reactions were allowed to reach equilibrium. Polarization measurements were taken with a Luminescence Spectrometer LS50B (Perkin Elmer) using FL WinLab software (Perkin Elmer). Binding data was analyzed by nonlinear regression used to fit a binding function as defined by the following equation: [formula]
Determination of Equilibrium Dissociation Constants (KD)—An equilibrium dissociation constant (KD) for the interaction of rSdrG(50-597) with the Fg Bβ chain peptide β1-25 was determined.

| Substance | inhibition of rSdrG(50-597) binding to Fg [1] | other results |
| --- | --- | --- |
| NEEGFFSA RGHRPLD [β6-20] | Effective inhibition; also recorded: potent inhibitor |  |
| NEEGFFSARGHRPLDKKREE [β6-25] | inhibit the binding of rSdrG(50-597) to Fg in a concentration dependent manner |  |
| FSARGHRPLD [β11-20] | essentially inactive |  |
| heparin |  | major bleeding, patients [2]: 1-33%; thrombocytopenia, patients [2]: 1-5% |
| ADSEGEGDFLAEGGGVR (listed as Staphylococcus epidermidis) [FpA] | essentially inactive |  |
| QGVNDNEEGFFSAR [FpB] | inhibited the binding of rSdrG(50-597) in a concentration dependent manner; also recorded: poor inhibitory activity | activity relative to peptide β1-25 (fold less active) ([1]; inhibition ELISA, FIG. 4C): at least 10 fold |
| QGVNDNEEGFFSARGHRPLDKK REE [β1-25] | inhibit the binding of rSdrG(50-597) to Fg in a concentration dependent manner | inhibition of rSdrG(50-597) binding to fluorescein-labeled β1-25 (rSdrG(50-597)): inhibited binding |
| FSERKDLHQGEGNPREFVENDAKGR [β1-25S] | did not interfere | inhibition of rSdrG(50-597) binding to fluorescein-labeled β1-25 (rSdrG(50-597)): not |
